Measured values: patent publication US20230293676A1, “Pharmaceutical Composition Comprising Hepatitis B Virus-Derived Polypeptide for Prevention or Treatment of Cancer” (priority 2020, published 2023)
Ends that are not written are not given here.

Assays:
[1] = system: MC38 murine colon cancer cell; experiment: cytotoxicity against cancer cells by poly6-treated DC2.4 cells, FACS; type: cell-based
Protocol: (§1) FIG. 7 illustrates the results of confirming that the cytotoxicity of various cancer cell lines (MC38, B16F10, and EO771) was reduced when iNOS formation was inhibited by L-NAME (5 mM) treatment while stimulating DC2.4 cells with poly6 for 24 hours (statistical significance was tested by Student's t-test. *, P<0.05; **, P<0.01; and ***, P<0.001).

[2] = system: B16F10 murine melanoma cancer cell; experiment: as above; type: cell-based
Protocol: as §1

EO771 = experiment: as above; type: cell-based, murine
Protocol: as §1

[3] = system: MDA231 human breast cancer cell; details: concentration-dependent
[4] = system: PanO2 murine pancreatic cancer cell; details: concentration-dependent
[5] = L-NAME 5 mM while stimulating DC2.4 with poly6 for 24 hours
[6] = DC2.4 treated with 10 μM of poly6 vs LPS (1 μg/ml)

| Molecule | cytotoxicity when iNOS formation was inhibited [1, 5] | cytotoxicity when iNOS formation was inhibited [2, 5] | cytotoxicity when iNOS formation was inhibited (EO771; [5]) | cytotoxicity against cancer cells compared to LPS [1, 6] | cytotoxicity by poly6-stimulated DC2.4 cells ([1]; concentration-dependent) | cytotoxicity against cancer cells compared to LPS [2, 6] | cytotoxicity by poly6-stimulated DC2.4 cells ([2]; concentration-dependent) | cytotoxicity by poly6-stimulated DC2.4 cells (EO771; concentration-dependent) | cytotoxicity by poly6-stimulated DC2.4 cells [3] | cytotoxicity by poly6-stimulated DC2.4 cells [4] |
| --- | --- | --- | --- | --- | --- | --- | --- | --- | --- | --- |
| COC(=O)[C@@H](N)CCCNC(=N)N[N+](=O)[O-] [L-NAME, reference compound] | reduced | reduced | reduced | – | – | – | – | – | – | – |
| GRLVFQ [poly6, GRLVFQ] | – | – | – | statistically significantly increased | cytotoxicity was induced | statistically significantly increased | cytotoxicity was induced | cytotoxicity was induced | cytotoxicity was induced | cytotoxicity was induced |
